The test system of one assay is NOTCH1. Description: NOTCH1 surface expression, flow cytometry. The class given is cell-based, human. The note with it: A549, 24 h. The protocol: (§1) 2.0×10^5 A549 cells were seeded in 6-well plates in a complete medium and treated with the complex 3. Assay results were detected by flow cytometry on a BD FACSCanto II flow cytometer. Data were analyzed using BD FACSDiva v.8.0.1 software (BD Biosciences) unless otherwise indicated. Tumor cells were treated for 72 h with complex 3, then stained for 15 minutes with FITC Annexin-V (Thermo Fisher Scientific) and 7AAD (BD Pharmingen, Milan, Italy). Activated caspase-3,7 was detected using the CaspaTag Caspase-3,7 assay (Merck Millipore) after an incubation of 24 h with complex 3. For B-cell lymphoma/leukemia-2 protein (Bcl-2) and Bcl-2 associated x protein (Bax) analysis, cells were treated for 72 h with C3, then fixed and permeabilized (FIX & PERM Cell Fixation & Cell Permeabilization Kit, Life Technologies). […] The distribution of cells in different cell cycle phases was quantified using ModFit LT 4.0 software (Verity Software House, Topsham, ME, USA) (See: Sulaiman, A. A. A.; Casagrande, N.; Borghese, C.; Corona, G.; Isab, A. A.; Ahmad, S.; Aldinucci, D.; Altaf M. Design, Synthesis, and Preclinical Activity in Ovarian Cancer Models of New Phosphanegold(I)—N-Heterocyclic Carbene Complexes. J Med Chem 2022, 65, 14424-14440, which is incorporated herein by reference in its entirety). […]

The subject of the next assay is MCF-7 (breast cancer). Description: MTT cytotoxicity assay, MCF-7. The class given is cell-based. The note with it: 72 h, mean, SD in next cell. On the procedure:
(§2) The human epithelial ovarian cancer A2780 cell line and its cisplatin-resistant clone A2780cis were obtained from Sigma-Aldrich (Milano, Italy). A2780cis cells were continuously exposed to 1 μM cisplatin to maintain cisplatin resistance. A549 cells (Human non-small cell lung cancer), MCF7 (metastatic breast cancer), PC3 (highly aggressive metastatic prostate cancer), and MG63 (osteosarcoma) were obtained from the American Type Culture Collection (ATCC). Cells were authenticated in laboratory using the PowerPlex 16 HS System. A2780, A2780cis, and PC3 cells were cultured in RPMI-1640 medium; MG63 and MCF7 cells were cultured in DMEM, and A549 cells were cultured in F12 NUT-MIX. The culture medium contained about 10% fetal bovine serum (FBS) (Gibco, Thermo Fisher Scientific, Monza, Italy), about 1% (v/v) of penicillin (10,000 units/mL)-streptomycin (10 mg/mL), and about 1% (v/v) L-glutamine (200 mM) (all from Sigma-Aldrich). Cells were cultured at 37° C. in a 5% CO2, fully humidified atmosphere.
(§3) 2.5×10^3 (PC3, MG63, MCF7) or 4.0×10^3 (A2780, A2780cis, A549) cells were seeded in 96-well microplates in 100 μL culture medium. Cells, allowed to adhere for 24 h, were then treated in triplicate with increasing concentrations of gold compounds. Cisplatin was included as a reference drug. Cell viability was evaluated using 3-(4,5-dimethylthiazol-2-yl)-2,5-diphenyltetrazolium bromide (MTT) assay (Sigma-Aldrich) after 72 h of treatment. Half maximal inhibitory concentrations (IC50), IC25, and IC75 were calculated using the CalcuSyn software version 2 (Biosoft, Ferguson, MO, USA) (See: Chou, T. C.; Talalay, P. Quantitative Analysis of Dose-Effect Relationships: The Combined Effects of Multiple Drugs or Enzyme Inhibitors. Adv. Enzyme Regul. 1984, 22, 27-55, which is incorporated herein by reference in its entirety). Fold resistance was calculated as the ratio of the IC50 of the A2780cis to that of the parental cell line A2780. Alternatively, cell viability was assayed by crystal violet staining (See: Feoktistova, M.; Geserick, P.; Leverkus, M. Crystal Violet Assay for Determining Viability of Cultured Cells. Cold Spring Harb Protoc 2016, 2016, pdb.prot087379, which is incorporated herein by reference in its entirety). Alternatively, after drug treatment, the culture Medium was removed, cells washed, fixed, and stained, and the Crystal Violet solution lasted 20 minutes (See: Sulaiman, A. A. A.; Casagrande, N.; Borghese, C.; Corona, G.; Isab, A. A.; Ahmad, S.; Aldinucci, D.; Altaf M. Design, Synthesis, and Preclinical Activity in Ovarian Cancer Models of New Phosphanegold(I)—N-Heterocyclic Carbene Complexes. J Med Chem 2022, 65, 14424-14440, which is incorporated herein by reference in its entirety).

The subject of another assay is CD133. Description: CD133 surface expression, flow cytometry. The class given is cell-based, human. The note with it: A549, 24 h. On the procedure: as §1
A general note: Flow cytometry measures light scatter and fluorescence of single cells or particles in a stream.

Assay [1] concerns A549 cells. The experiment in a line: Annexin-V-FITC/7AAD apoptosis, flow cytometry. The note with it: A549, 72 h, 0.06-0.60 μM. Type of assay: cell-based, human. On the procedure: as §1
The next assay deals with A549 (lung cancer cells). The experiment in a line: MTT cytotoxicity assay, A549. Type of assay: cell-based, human. The note with it: 72 h. The protocol:
as §2, §3
Background: Formazan colour is commonly taken as a measure of viable cells.

The subject of assay [2] is A549 cells. Description: Mitochondrial ROS generation (MitoSOX Red). The class given is cell-based, human. The note with it: A549, 48 h. The protocol:
as §1

The next assay deals with MG-63 (osteosarcoma). The experiment in a line: MTT cytotoxicity assay, MG-63. Type of assay: cell-based. The note with it: 72 h, mean, SD in next cell. The protocol:
as §2
2.5×10^3 (PC3, MG63, MCF7) or 4.0×10^3 (A2780, A2780cis, A549) cells were seeded in 96-well microplates in 100 μL culture medium. Cells, allowed to adhere for 24 h, were then treated in triplicate with increasing concentrations of gold compounds. Cisplatin was included as a reference drug. Cell viability was evaluated using 3-(4,5-dimethylthiazol-2-yl)-2,5-diphenyltetrazolium bromide (MTT) assay (Sigma-Aldrich) after 72 h of treatment. Half maximal inhibitory concentrations (IC50), IC25, and IC75 were calculated using the CalcuSyn software version 2 (Biosoft, Ferguson, MO, USA) (See: Chou, T. C.; Talalay, P. Quantitative Analysis of Dose-Effect Relationships: The Combined Effects of Multiple Drugs or Enzyme Inhibitors. Adv. Enzyme Regul. 1984, 22, 27-55, which is incorporated herein by reference in its entirety). Fold resistance was calculated as the ratio of the IC50 of the A2780cis to that of the parental cell line A2780. […]

The values that follow come from patent US20250222009A1, “DINUCLEAR GOLD(I) COMPLEXES FOR TREATING CANCER” (KING FAHD UNIVERSITY OF PETROLEUM AND MINERALS, priority 2024, published 2025).

Structures are written as SMILES.

Regarding `CC(C)c1cccc(C(C)C)c1-n1ccn(-c2c(C(C)C)cccc2C(C)C)[c]1=[Au-][P+](CCNCC[P+]([Au-]=[c]1n(-c2c(C(C)C)cccc2C(C)C)ccn1-c1c(C(C)C)cccc1C(C)C)(C1CCCCC1)C1CCCCC1)(C1CCCCC1)C1CCCCC1` [Complex 3, [(Au(IPr))2(C28H24P2)](PF6)2], the NOTCH1 expression entry with NOTCH1 is given as “decreased in a dose-dependent manner”. In the assay with MCF-7 (breast cancer), this compound displayed a 50% inhibitory concentration (IC50) of 430 nM. The CD133 expression levels entry in the assay on CD133 was “reduced”. In the assay with A549 cells [1], the “percentage of Annexin-V-positive cells (early apoptosis)” value is “increased in a dose-dependent manner” and the “percentage of double stained Annexin-V/7AAD-positive cells (late apoptosis)” value is listed as “increased in a dose-dependent manner”. In addition, in the assay on A549 (lung cancer cells), the “IC25 A549” value was 60 nM and the “IC75 A549” value amounted to 600 nM. This compound returned an IC50 in the assay on A549 (lung cancer cells) (mean (SD)) of 130 nM. For the same compound, the “mitochondrial reactive oxygen species (mit-ROS)” value in the assay with A549 cells [2] is on record as “increased”. This compound came in with an IC50 with MG-63 (osteosarcoma) of 160 nM.

The term IC50 denotes the concentration that gives 50% inhibition.
